Results published in patent US11779565B2, “Small organic molecules for use in the treatment of neuroinflammatory disorders” (THE MEDICAL RESEARCH, INFRASTRUCTURE AND HEALTH SERVICES …, priority 2017, dated 2023).

What was measured:
BMP-2 = target: T1, BMP-2 (Homo sapiens, UniProt P12643); experiment: ATDC5 cell based HTS bioassay: ALP production stimulated by BMP-2 and heparin; parameters: species or system mouse; conditions: for IC50: inhibition of BMP-2-stimulated ALP in ATDC5 cells, 48 hours, tested at 0.62-10 μM; for inhibition at 2.5 µM: ATDC5 cells, read-out: inhibition of BMP-2 (ALP induction)
T1 construct: purchased R&D Systems
T1 sequence (P12643 283-396): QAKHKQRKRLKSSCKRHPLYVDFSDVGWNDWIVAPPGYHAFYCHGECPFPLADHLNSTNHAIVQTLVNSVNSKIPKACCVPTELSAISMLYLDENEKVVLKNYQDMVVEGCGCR
Procedure: Poly-L-lysine (Sigma-Aldrich) was added to 384-well plates and was removed after 30 min of incubation at RT. An assay medium containing DMEM/F12, 2% FBS, 100 units/ml penicillin, […] streptomycin (Biological industries) was added to each well. […] ATDC5 cells (Sigma-Aldrich) were harvested, re-suspended in assay medium and added to a final concentration of 2000 cells/well. Finally, heparin (Sigma-Aldrich) was added to a final concentration of 2 μg/ml. The cells were incubated for 48 hours at 37° C. with 5% CO2 in a humidified chamber in the presence or absence of potential small molecule inhibitors of BPM-2. After incubation, ALP levels and cell viability were determined using a completely automated protocol. Cells were washed with PBS, lysed using a lysis buffer containing 0.2% Triton X-100 in PBS supplemented with a protease inhibitor cocktail (Sigma-Aldrich) and incubated for 25 min at RT. ALP level was then determined by addition of CDP-Star® chemiluminescent substrate (Sigma-Aldrich) and measurement of luminescence after incubation for 25 min at RT in the dark. Cell viability was finally determined by addition of CellTiter-Glo® reagent (Biological Industries) and luminescence measurement after 10 min of incubation.
An ATDC5 cell based assay for assessing structure-function relationship of BMP-2 and BMP receptor IA was originally described in Keller et al (Nature Structural & Molecular Biology 2004 11, 481-488). In order to screen a large volume of potential therapeutic agents the ATDC5 cell based bioassay for detecting BMP inhibition was adapted for use in high throughput screening. The bioassay is based on the stimulation of alkaline phosphatase (ALP) production in mouse ATDC5 cells by administration of BMP-2 and heparin, and measurement of ALP levels in the presence of the potential inhibitors. […] This was achieved by using CellTiter-Glo® Luminescent Cell Viability Assay for assessing the cells' viability after the luminescent signal by CDP-Star® has faded. The simultaneous assessment of both ALP production and cells' viability was necessary since potentially toxic tested small molecules may lead to reduced ALP levels by cellular cytotoxicity rather than by interference with BMP-2 signaling. […] Particulars of the bioassay are detailed in the Experimental procedures section above.
A library of small molecules (SM) was screened using the High Throughput Screening bioassay described above. About 7600 SMs were screened, from the Maybridge library, which consists of organic “drug-like” compounds, using the pre-plated HitFinder™ Collection. […] The SM were tested at various concentrations, i.e. at 0.62 μM, 1.25 μM, 2.5 μM, 5 μM and 10 μM.

SMAD1/5/8 signaling = SMAD1/5/8 signaling by Western blot in P19 cells; assay type: cell-based, murine; conditions: 4 h
Procedure: P19 cells were seeded in 6-well-plates (3.5×10^5 cells/well). On the following day, the cells were either untreated or treated with 5×10^−7 M RA, 5 ng/ml BMP-2 or SMs for 4 h. Cells were washed with ice cold PBS, harvested and lysed with ice cold RIPA buffer (Sigma-Aldrich) supplemented with protease inhibitor cocktail and sodium orthovanadate (Na3VO4) as phosphatase inhibitor (Sigma-Aldrich). Protein concentrations were determined using a BCA protein assay kit (Pierce, Rockford, Ill.). Cell lysates (40-60 μg protein) were separated by 4-15% SDS-PAGE gel electrophoresis and then transferred to nitrocellulose membranes at 0.2 A for 2 h. The membranes were blocked at room temperature for 1 h in 5% (w/v) non-fat-dried milk and then incubated with anti-phospho-Smad1/5/9, anti-Smad1 (Cell signaling Technology, Beverly, Mass., USA) and anti-tubulin (Sigma-Aldrich) antibodies at room temperature for 2 h. The membranes were washed and incubated with alkaline phosphatase-conjugated secondary antibody (Jackson Laboratories Immune Research, PA, USA). Signal was detected using enhanced chemiluminescence kit (Clarity, Bio-Rad Laboratories, Richmond, Calif.) and digital images were captured by MicroChemi (DNR Bio-imaging Systems, Jerusalem, Israel). Protein levels were quantified using ImageJ software and normalized to {alpha}-tubulin.
The canonical BMP signal is known to be mediated via SMAD phosphorylation. BMPs transduce signals by binding to complexes of type I and II serine/threonine kinase receptors. Ligand binding induces phosphorylation of the receptors, which then activate canonical signaling via receptor Smads (R-Smads) 1, 5 and 8. R-Smads are phosphorylated by the activated type I receptor. They then complex with Smad4, triggering nuclear translocation. The effect of the SMs on the phosphorylation of the canonical SMAD1/5/8 signaling, induced in P19 cells in response to stimulation with BMP-2, was examined.

RR-EAE mice = experiment: Demyelination in EAE: LFB-H&E staining of lumbar spinal cord; assay type: in vivo; conditions: day 48 post immunization (vehicle 28.3±1.8%)
Procedure: FIGS. 6A-6B—The effect of SM1, SM6, SM7 and SM9 on demyelination. FIG. 6A: Representative images of the lumbar spinal cord section, stained with LFB (anterio lateral funiculus), of mice treated with vehicle, SM1 10 mg/kg/day, SM1 20 mg/kg/day, SM7 10 mg/kg/day, SM9 10 mg/kg/day, SM9 20 mg/kg/day, SM6 10 mg/kg/day and SM6 20 mg/kg/day. FIG. 6B: Quantification of myelinated area. […] Quantification was performed using Image J software on 6 mice/group and 3 sections/mouse.
The direct effect of the SMs on the demyelination and remyelination processes was analyzed. Spinal cord was removed from 6 mice of each group and the lumbar segment of the spinal cord was sectioned (10 μm coronal paraffin section) and was processed for LFB-H&E (luxol fast blue with H&E) for myelin and infiltrates staining.

Row | Structure (SMILES) | IC50 (BMP-2) [µM] | reduction in p-SMAD/tubulin compared to stimulation with BMP-2 alone (SMAD1/5/8 signaling; 2.5 μM) [%] | reduction in p-SMAD/tubulin compared to stimulation with BMP-2 alone (SMAD1/5/8 signaling; 5 μM) [%] | % myelinated area (LFB-stained area of total spinal cord section) (RR-EAE mice; 10 mg/kg) [%] | inhibition at 2.5 µM (BMP-2) [%] | % myelinated area (LFB-stained area of total spinal cord section) (RR-EAE mice; 20 mg/kg) [%]
1 | COC(=O)c1sccc1N/N=C(\C#N)S(=O)(=O)c1cccs1 [SM1, Methyl 3-[(2E)-2-[cyano(thiophen-2-ylsulfonyl)methylidene]hydrazinyl]thiophene-2-carboxylate] | 2.6 | 24.2 | 19.9 |  |  | 
2 | O=C(Nc1cccc(C(F)(F)F)c1)c1ccc([N+](=O)[O-])o1 [SM6, N2-[3-(trifluoromethyl)phenyl)-5-nitro-2-furamide] | 9.7 |  |  | 34.8±1.6 |  | 
3 | N#Cc1c(O)nsc1Nc1ccccc1C(F)(F)F [SM7, 3-hydroxy-5-[2-(trifluoromethyl)aniline]isothiazole-4-carbonitrile] | 2.2 | 40.0 |  | 34.0±0.8 | 47.3 | 
4 | CS(=O)(=O)c1noc(-c2ccc(Cl)cc2)c1C#N [SM9, 5-(4-chlorophenyl)-3-methylsulfonyl-1,2-oxazole-4-carbonitrile] | 4.4 | 42.7 |  |  | 29.1 | 34.6±1.6
